In patent publication US4613503A, “Antibiotic A26201-1 and antibiotic A26201-2 produced by a novel strain of actinoplanes” (The Dow Chemical Company, priority 1984, dated 1986):

What was measured:
Type in all cases: cell-based
[1] = system: Pseudomonas aeruginosa; assay: Minimum inhibitory concentration, agar dilution; conditions: trypticase soy agar, 2-fold serial dilutions
[2] = system: Staphylococcus aureus; assay: Minimum inhibitory concentration, agar dilution; conditions: trypticase soy agar, 2-fold serial dilutions
[3] = system: Bacteroides multiacidus; assay: Minimum inhibitory concentration, agar dilution; conditions: trypticase soy agar, 2-fold serial dilutions
[4] = system: Bacteroides fragilis; assay: Minimum inhibitory concentration, agar dilution; conditions: trypticase soy agar, 2-fold serial dilutions
[5] = system: Fusobacterium necrophorum; assay: Minimum inhibitory concentration, agar dilution; conditions: trypticase soy agar, 2-fold serial dilutions
[6] = system: Aspergillus niger; assay: Minimum inhibitory concentration, agar dilution; conditions: trypticase soy agar, 2-fold serial dilutions
[7] = system: Candida albicans; assay: Minimum inhibitory concentration, agar dilution; conditions: trypticase soy agar, 2-fold serial dilutions
[8] = system: Clostridium septicum; assay: Minimum inhibitory concentration, agar dilution; conditions: trypticase soy agar, 2-fold serial dilutions
[9] = system: Actinomyces viscosus; assay: Minimum inhibitory concentration, agar dilution; conditions: trypticase soy agar, 2-fold serial dilutions
[10] = system: Erwinia amylovora; assay: Minimum inhibitory concentration, agar dilution; conditions: trypticase soy agar, 2-fold serial dilutions
[11] = system: Mucor miehei; assay: Minimum inhibitory concentration, agar dilution; conditions: trypticase soy agar, 2-fold serial dilutions
[12] = system: Bacillus subtilis; assay: Minimum inhibitory concentration, agar dilution; conditions: trypticase soy agar, 2-fold serial dilutions
[13] = system: Clostridium perfringens
[14] = system: Sarcina lutea; assay: Minimum inhibitory concentration, agar dilution; conditions: trypticase soy agar, 2-fold serial dilutions
[15] = system: Lactobacillus casei; assay: Minimum inhibitory concentration, agar dilution; conditions: trypticase soy agar, 2-fold serial dilutions
[16] = system: Streptococcus mutans; assay: Minimum inhibitory concentration, agar dilution; conditions: trypticase soy agar, 2-fold serial dilutions
[17] = system: Pircularia oryzae; assay: Minimum inhibitory concentration, agar dilution; conditions: trypticase soy agar, 2-fold serial dilutions
Experimental: Minimum inhibitory concentrations (MIC's) were determined respectively for the crude broth material, antibiotic A26201, antibiotic A26201-1, antibiotic A26201-2, and gardimycin against a number of different microorganisms. The following techniques were used to determine the MIC's:
Thirty ml aliquots of trypticase soy agar were respectively placed in individual tubes. The agar was melted and then cooled to about 45° to 50° C. A concentration (2-fold serial dilutions of the highest concentration tested) of test antibiotic was added to each individual tube. Each test mixture was stirred and poured into an individual petri plate so that each petri plate contained a single concentration of antibiotic. When the agar hardened, the plates were inoculated with either aerobic or anaerobic test organisms. The plates inoculated with aerobic organisms were incubated at 37° C. for 24 hours and read for bacterial growth. The same plates were again incubated at 30° C. for an additional 48 hours at which point they were checked for yeast and fungal growth. The plates inoculated with anaerobic organisms were incubated at 37° C. in an anaerobic chamber and read at 48 hours.

[18] = system: Streptococcus faecalis; assay: Minimum inhibitory concentration, agar dilution; conditions: trypticase soy agar, 2-fold serial dilutions
[19] = system: Streptococcus bovis; assay: Minimum inhibitory concentration, agar dilution; conditions: trypticase soy agar, 2-fold serial dilutions
[20] = system: Escherchia coli; assay: Minimum inhibitory concentration, agar dilution; conditions: trypticase soy agar, 2-fold serial dilutions
[21] = system: Salmonella typhimurium; assay: Minimum inhibitory concentration, agar dilution; conditions: trypticase soy agar, 2-fold serial dilutions

gardimycin
MIC [1]: > 75 µg/mL | MIC [2]: 75 µg/mL | MIC [3]: > 50 µg/mL | MIC [4]: > 50 µg/mL | MIC [5]: > 75 µg/mL | MIC [6]: > 75 µg/mL | MIC [7]: > 75 µg/mL | MIC [8]: 3.1 µg/mL | MIC [9]: 12.5 µg/mL | MIC [10]: > 75 µg/mL | MIC [11]: > 75 µg/mL | MIC [12]: 75 µg/mL | MIC [13]: 3.1 µg/mL | MIC [14]: 1.5 µg/mL | MIC [15]: > 75 µg/mL | MIC [16]: > 75 µg/mL | MIC [17]: > 75 µg/mL | MIC [18]: 25 µg/mL | MIC [19]: > 75 µg/mL | MIC [20]: > 75 µg/mL | MIC [21]: > 75 µg/mL
